Reference: patent publication US6939946B2, “Ring modified cyclic peptide analogs” (Eli Lilly and Company, priority 1998, dated 2005)
Structures can show the parent of a compound that is named as a salt. Bridge positions count the residues as written; N and C are the ends. Square brackets hold non-standard residues; d marks the D form. Peptide text beside a SMILES is read from it. * marks the point of attachment. ξ: configuration not given here. pTerphenylCO(4''-OnC5H11) = CCCCCOc1ccc(-c2ccc(-c3ccc(C(=O)*)cc3)cc2)cc1; Pro(3S-OH,4S-Me) = C[C@H]1CN[C@H](C(=O)O)[C@H]1O; hTyr(3R-OH) = N[C@H](C(=O)O)[C@H](O)Cc1ccc(O)cc1; Hyp = O=C(O)[C@@H]1C[C@@H](O)CN1; Thr(3ξ) = CC(O)[C@H](N)C(=O)O; dOrn = NCCC[C@@H](N)C(=O)O; Orn = NCCC[C@H](N)C(=O)O; Dab = NCC[C@H](N)C(=O)O; ξDap = NCC(N)C(=O)O

What was measured:
Settings in all cases: in vitro
[1] = test system: C. parapsilosis
[2] = test system: Histoplasma capsulatum
[3] = test system: C. albicans
[4] = test system: A. fumigatus

| Compound | Minimal Inhibitory Concentration MIC C. parapsilosis [1] | Minimal Inhibitory Concentration MIC Histoplasma capsulatum [2] | Minimal Inhibitory Concentration MIC C. albicans [3] | Minimal Inhibitory Concentration MIC A. fumigatus [4] |
| --- | --- | --- | --- | --- |
| CCCCCOc1ccc(-c2ccc(-c3ccc(C(=O)N[C@H]4CCN(C)NC(=O)[C@@H]5[C@@H](O)[C@@H](C)CN5C(=O)[C@H](C(C)O)NC(=O)[C@H]([C@H](O)Cc5ccc(O)cc5)NC(=O)[C@@H]5C[C@@H](O)CN5C(=O)[C@H](C(C)O)NC4=O)cc3)cc2)cc1 (single isomer, unassigned) [E2-11(a) HCl salt] | 0.156 µg/mL | 0.02 µg/mL | 0.001 µg/mL | 0.078 µg/mL |
| CCCCCOc1ccc(-c2ccc(-c3ccc(C(=O)N[C@H]4CCN(C)NC(=O)[C@@H]5[C@@H](O)[C@@H](C)CN5C(=O)[C@H](C(C)O)NC(=O)[C@H]([C@H](O)Cc5ccc(O)cc5)NC(=O)[C@@H]5C[C@@H](O)CN5C(=O)[C@H](C(C)O)NC4=O)cc3)cc2)cc1 (single isomer, unassigned) [E2-11(a) TFA salt] | 0.156 µg/mL | 0.78 µg/mL | 0.005 µg/mL | 0.039 µg/mL |
| CCCCCOc1ccc(-c2ccc(-c3ccc(C(=O)N[C@H]4CCN(C(=O)C(N)CN)NC(=O)[C@@H]5[C@@H](O)[C@@H](C)CN5C(=O)[C@H](C(C)O)NC(=O)[C@H]([C@H](O)Cc5ccc(O)cc5)NC(=O)[C@@H]5C[C@@H](O)CN5C(=O)[C@H](C(C)O)NC4=O)cc3)cc2)cc1 (single isomer, unassigned) [E2-13 (isomer 1)] | 2.5 µg/mL | 1.25 µg/mL | 0.078 µg/mL | 0.625 µg/mL |
| CCCCCOc1ccc(-c2ccc(-c3ccc(C(=O)N[C@H]4CCN(C(=O)C(N)CN)NC(=O)[C@@H]5[C@@H](O)[C@@H](C)CN5C(=O)[C@H](C(C)O)NC(=O)[C@H]([C@H](O)Cc5ccc(O)cc5)NC(=O)[C@@H]5C[C@@H](O)CN5C(=O)[C@H](C(C)O)NC4=O)cc3)cc2)cc1 (single isomer, unassigned) [E2-13 (isomer 2)] | 20 µg/mL | 10 µg/mL | 0.156 µg/mL | 1.25 µg/mL |
| CCCCCOc1ccc(-c2ccc(-c3ccc(C(=O)N[C@H]4CCCNC(=O)[C@@H]5[C@@H](O)[C@@H](C)CN5C(=O)[C@H](C(C)O)NC(=O)[C@H]([C@H](O)Cc5ccc(O)cc5)NC(=O)[C@@H]5C[C@@H](O)CN5C(=O)[C@H](C(C)O)NC4=O)cc3)cc2)cc1 (stereo partly drawn) [Compound E1-3] ({pTerphenylCO(4''-OnC5H11)}-[Orn][Thr(3ξ)][Hyp][hTyr(3R-OH)][Thr(3ξ)][Pro(3S-OH,4S-Me)]; lactam 1-C) | 0.156 µg/mL | 0.156 µg/mL | 0.005 µg/mL | 0.078 µg/mL |
| CCCCCOc1ccc(-c2ccc(-c3ccc(C(=O)N[C@@H]4CCCNC(=O)[C@@H]5[C@@H](O)[C@@H](C)CN5C(=O)[C@H](C(C)O)NC(=O)[C@H]([C@H](O)Cc5ccc(O)cc5)NC(=O)[C@@H]5C[C@@H](O)CN5C(=O)[C@H](C(C)O)NC4=O)cc3)cc2)cc1 (stereo partly drawn) [Compound E1-4] ({pTerphenylCO(4''-OnC5H11)}-[dOrn][Thr(3ξ)][Hyp][hTyr(3R-OH)][Thr(3ξ)][Pro(3S-OH,4S-Me)]; lactam 1-C) | >20 µg/mL | 5.0 µg/mL | 1.25 µg/mL | 20.0 µg/mL |
| CCCCCOc1ccc(-c2ccc(-c3ccc(C(=O)N[C@H]4CCCCNC(=O)[C@@H]5[C@@H](O)[C@@H](C)CN5C(=O)[C@H](C(C)O)NC(=O)[C@H]([C@H](O)Cc5ccc(O)cc5)NC(=O)[C@@H]5C[C@@H](O)CN5C(=O)[C@H](C(C)O)NC4=O)cc3)cc2)cc1 (stereo partly drawn) [Compound E1-5] ({pTerphenylCO(4''-OnC5H11)}-K[Thr(3ξ)][Hyp][hTyr(3R-OH)][Thr(3ξ)][Pro(3S-OH,4S-Me)]; lactam 1-C) | >20 µg/mL | 0.156 µg/mL | 0.02 µg/mL | 2.5 µg/mL |
| CCCCCOc1ccc(-c2ccc(-c3ccc(C(=O)N[C@H]4CCNC(=O)[C@@H]5[C@@H](O)[C@@H](C)CN5C(=O)[C@H](C(C)O)NC(=O)[C@H]([C@H](O)Cc5ccc(O)cc5)NC(=O)[C@@H]5C[C@@H](O)CN5C(=O)[C@H](C(C)O)NC4=O)cc3)cc2)cc1 (stereo partly drawn) [Compound E1-6] ({pTerphenylCO(4''-OnC5H11)}-[Dab][Thr(3ξ)][Hyp][hTyr(3R-OH)][Thr(3ξ)][Pro(3S-OH,4S-Me)]; lactam 1-C) | >20 µg/mL | 0.078 µg/mL | 0.039 µg/mL | 20 µg/mL |
| CCCCCOc1ccc(-c2ccc(-c3ccc(C(=O)NC4CNC(=O)[C@@H]5[C@@H](O)[C@@H](C)CN5C(=O)[C@H](C(C)O)NC(=O)[C@H]([C@H](O)Cc5ccc(O)cc5)NC(=O)[C@@H]5C[C@@H](O)CN5C(=O)[C@H](C(C)O)NC4=O)cc3)cc2)cc1 (stereo partly drawn) [Compound E1-7] ({pTerphenylCO(4''-OnC5H11)}-[ξDap][Thr(3ξ)][Hyp][hTyr(3R-OH)][Thr(3ξ)][Pro(3S-OH,4S-Me)]; lactam 1-C) | >20 µg/mL | 0.625 µg/mL | 0.312 µg/mL | 0.625 µg/mL |
| CCCCCOc1ccc(-c2ccc(-c3ccc(C(=O)N[C@H]4CCN(C(=O)CN)NC(=O)[C@@H]5[C@@H](O)[C@@H](C)CN5C(=O)[C@H](C(C)O)NC(=O)[C@H]([C@H](O)Cc5ccc(O)cc5)NC(=O)[C@@H]5C[C@@H](O)CN5C(=O)[C@H](C(C)O)NC4=O)cc3)cc2)cc1 (stereo partly drawn) [Compound E2-12] | 0.312 µg/mL | 0.039 µg/mL | 0.01 µg/mL | 0.156 µg/mL |
| CCCCCOc1ccc(-c2ccc(-c3ccc(C(=O)NC4CS(=O)(=O)CCNC(=O)[C@@H]5[C@H](O)[C@@H](C)CN5C(=O)[C@H]([C@@H](C)O)NC(=O)[C@H]([C@H](O)Cc5ccc(O)cc5)NC(=O)[C@@H]5C[C@@H](O)CN5C(=O)[C@H]([C@@H](C)O)NC4=O)cc3)cc2)cc1 (stereo partly drawn) [Compound E3-6] | >20 µg/mL | 10 µg/mL | 10 µg/mL | 20 µg/mL |
| CCCCCOc1ccc(-c2ccc(-c3ccc(C(=O)N[C@@H]4CS(=O)(=O)CCNC(=O)[C@@H]5[C@H](O)[C@@H](C)CN5C(=O)[C@H]([C@@H](C)O)NC(=O)[C@H]([C@H](O)Cc5ccc(O)cc5)NC(=O)[C@@H]5C[C@@H](O)CN5C(=O)[C@H]([C@@H](C)O)NC4=O)cc3)cc2)cc1 [Compound E3-7] | >20 µg/mL | >20 µg/mL | >20 µg/mL | >20 µg/mL |
